Data: the NIST ThermoML archive (doi:10.1021/acs.jced.6b00516)
± gives the expanded uncertainty stated by the source.

Experiment: xn = mol fraction of the nth substance listed
Details: for viscosity / speed of sound: 102 kPa, Liquid; for viscosity: Concentric cylinders viscometry; for speed of sound: Frequency=3 MHz, Sing-around technique in a fixed-path interferometer; for surface tension liquid-gas: 294.4 K, Sessile Drop

CCCCC1CCCCC1 [butylcyclohexane] + CCCCCCCCCCCCCCCC
Details	speed of sound [m/s]	viscosity [mPa·s]
293.15 K, x1 = 0.1524	1353.6 ± 0.8	3.07 ± 0.02
293.15 K, x1 = 0.2876	1349.9 ± 0.8	2.76 ± 0.03
293.15 K, x1 = 0.4091	1346.4 ± 0.8	2.48 ± 0.03
293.15 K, x1 = 0.5182	1343.3 ± 0.8	2.25 ± 0.03
293.15 K, x1 = 0.6173	1340.4 ± 0.8	2.04 ± 0.03
293.15 K, x1 = 0.7078	1337.4 ± 0.8	1.86 ± 0.02
293.15 K, x1 = 0.7902	1334.9 ± 0.8	1.7 ± 0.02
293.15 K, x1 = 0.8658	1332.7 ± 0.8	1.55 ± 0.02
293.15 K, x1 = 0.9355	1330.4 ± 0.8	1.42 ± 0.02
293.15 K, x1 = 1	–	1.31 ± 0.01
303.15 K, x1 = 0.1524	1316.4 ± 0.8	2.46 ± 0.02
303.15 K, x1 = 0.2876	1312.6 ± 0.8	2.23 ± 0.02
303.15 K, x1 = 0.4091	1309 ± 0.8	2.03 ± 0.02
303.15 K, x1 = 0.5182	1305.6 ± 0.8	1.85 ± 0.02
303.15 K, x1 = 0.6173	1302.5 ± 0.8	1.69 ± 0.02
303.15 K, x1 = 0.7078	1299.2 ± 0.8	1.55 ± 0.02
303.15 K, x1 = 0.7902	1296.4 ± 0.8	1.42 ± 0.02
303.15 K, x1 = 0.8658	1293.8 ± 0.8	1.31 ± 0.02
303.15 K, x1 = 0.9355	1291.2 ± 0.8	1.21 ± 0.02
303.15 K, x1 = 1	–	1.12 ± 0.01
313.15 K, x1 = 0.1524	1279.7 ± 0.8	2.01 ± 0.01
313.15 K, x1 = 0.2876	1275.8 ± 0.8	1.84 ± 0.02
313.15 K, x1 = 0.4091	1272 ± 0.8	1.68 ± 0.02
313.15 K, x1 = 0.5182	1268.5 ± 0.8	1.54 ± 0.02
313.15 K, x1 = 0.6173	1265.1 ± 0.8	1.42 ± 0.02
313.15 K, x1 = 0.7078	1261.5 ± 0.8	1.31 ± 0.02
313.15 K, x1 = 0.7902	1258.3 ± 0.8	1.21 ± 0.02
313.15 K, x1 = 0.8658	1255.3 ± 0.8	1.12 ± 0.02
313.15 K, x1 = 0.9355	1252.3 ± 0.8	1.03 ± 0.02
313.15 K, x1 = 1	–	0.961 ± 0.012
323.15 K, x1 = 0.1524	1243.6 ± 0.8	1.68 ± 0.01
323.15 K, x1 = 0.2876	1239.6 ± 0.8	1.54 ± 0.02
323.15 K, x1 = 0.4091	1235.5 ± 0.8	1.42 ± 0.02
323.15 K, x1 = 0.5182	1231.8 ± 0.8	1.31 ± 0.02
323.15 K, x1 = 0.6173	1228.2 ± 0.8	1.21 ± 0.02
323.15 K, x1 = 0.7078	1224.3 ± 0.8	1.12 ± 0.02
323.15 K, x1 = 0.7902	1220.8 ± 0.8	1.04 ± 0.02
323.15 K, x1 = 0.8658	1217.6 ± 0.8	0.966 ± 0.015
323.15 K, x1 = 0.9355	1214.1 ± 0.8	0.897 ± 0.015
323.15 K, x1 = 1	–	0.837 ± 0.012
333.15 K, x1 = 0.1524	1208.1 ± 0.8	1.42 ± 0.01
333.15 K, x1 = 0.2876	1203.9 ± 0.8	1.31 ± 0.02
333.15 K, x1 = 0.4091	1199.7 ± 0.8	1.21 ± 0.02
333.15 K, x1 = 0.5182	1195.7 ± 0.8	1.13 ± 0.02
333.15 K, x1 = 0.6173	1191.8 ± 0.8	1.05 ± 0.02
333.15 K, x1 = 0.7078	1187.6 ± 0.8	0.972 ± 0.014
333.15 K, x1 = 0.7902	1183.9 ± 0.8	0.906 ± 0.014
333.15 K, x1 = 0.8658	1180.3 ± 0.8	0.844 ± 0.014
333.15 K, x1 = 0.9355	1176.4 ± 0.8	0.783 ± 0.014
333.15 K, x1 = 1	–	0.735 ± 0.011
343.15 K, x1 = 0.1524	–	1.22 ± 0.01
343.15 K, x1 = 0.2876	–	1.13 ± 0.01
343.15 K, x1 = 0.4091	–	1.05 ± 0.01
343.15 K, x1 = 0.5182	–	0.977 ± 0.014
343.15 K, x1 = 0.6173	–	0.912 ± 0.013
343.15 K, x1 = 0.7078	–	0.851 ± 0.013
343.15 K, x1 = 0.7902	–	0.797 ± 0.013
343.15 K, x1 = 0.8658	–	0.745 ± 0.014
343.15 K, x1 = 0.9355	–	0.694 ± 0.014
343.15 K, x1 = 1	–	0.648 ± 0.011
353.15 K, x1 = 0.1524	–	1.06 ± 0.01
353.15 K, x1 = 0.2876	–	0.987 ± 0.013
353.15 K, x1 = 0.4091	–	0.921 ± 0.013
353.15 K, x1 = 0.5182	–	0.86 ± 0.013
353.15 K, x1 = 0.6173	–	0.805 ± 0.013
353.15 K, x1 = 0.7078	–	0.753 ± 0.013
353.15 K, x1 = 0.7902	–	0.706 ± 0.013
353.15 K, x1 = 0.8658	–	0.662 ± 0.013
353.15 K, x1 = 0.9355	–	0.619 ± 0.013
353.15 K, x1 = 1	–	0.576 ± 0.011

Details	surface tension liquid-gas [mN/m]
x1 = 0.1524	26.9 ± 0.2
x1 = 0.2876	26.9 ± 0.2
x1 = 0.4091	26.9 ± 0.2
x1 = 0.5182	26.8 ± 0.2
x1 = 0.6173	26.8 ± 0.2
x1 = 0.7078	26.8 ± 0.2
x1 = 0.7902	26.7 ± 0.2
x1 = 0.8658	26.7 ± 0.2
x1 = 0.9355	26.7 ± 0.2

CCCCC1CCCCC1 [butylcyclohexane] + Cc1ccccc1
Details	speed of sound [m/s]	viscosity [mPa·s]
293.15 K, x1 = 0.0681	1321.1 ± 0.8	0.622 ± 0.011
293.15 K, x1 = 0.1544	1316.7 ± 1.2	0.649 ± 0.011
293.15 K, x1 = 0.2197	1314.5 ± 0.8	0.678 ± 0.011
293.15 K, x1 = 0.3045	1313 ± 0.8	0.721 ± 0.011
293.15 K, x1 = 0.3964	1312.8 ± 0.8	0.774 ± 0.012
293.15 K, x1 = 0.4964	1313.5 ± 0.8	0.838 ± 0.012
293.15 K, x1 = 0.6046	1315.6 ± 0.8	0.916 ± 0.012
293.15 K, x1 = 0.7244	1318.9 ± 0.8	1.02 ± 0.01
293.15 K, x1 = 0.8548	1323.3 ± 0.8	1.16 ± 0.02
293.15 K, x1 = 1	–	1.31 ± 0.01
303.15 K, x1 = 0.0681	1278.6 ± 0.8	0.552 ± 0.011
303.15 K, x1 = 0.1544	1274.6 ± 1.1	0.578 ± 0.011
303.15 K, x1 = 0.2197	1272.7 ± 0.8	0.603 ± 0.011
303.15 K, x1 = 0.3045	1271.6 ± 0.8	0.638 ± 0.011
303.15 K, x1 = 0.3964	1271.6 ± 0.8	0.683 ± 0.011
303.15 K, x1 = 0.4964	1272.7 ± 0.8	0.735 ± 0.011
303.15 K, x1 = 0.6046	1275 ± 0.8	0.8 ± 0.012
303.15 K, x1 = 0.7244	1278.6 ± 0.8	0.885 ± 0.012
303.15 K, x1 = 0.8548	1283.3 ± 0.8	0.991 ± 0.021
303.15 K, x1 = 1	–	1.12 ± 0.01
313.15 K, x1 = 0.0681	1236.5 ± 0.8	0.495 ± 0.011
313.15 K, x1 = 0.1544	1232.9 ± 0.8	0.518 ± 0.011
313.15 K, x1 = 0.2197	1231.4 ± 0.8	0.538 ± 0.011
313.15 K, x1 = 0.3045	1230.6 ± 0.8	0.568 ± 0.011
313.15 K, x1 = 0.3964	1230.9 ± 0.8	0.607 ± 0.011
313.15 K, x1 = 0.4964	1232.3 ± 0.8	0.651 ± 0.011
313.15 K, x1 = 0.6046	1234.9 ± 0.8	0.704 ± 0.011
313.15 K, x1 = 0.7244	1238.8 ± 0.8	0.775 ± 0.012
313.15 K, x1 = 0.8548	1243.7 ± 0.8	0.862 ± 0.021
313.15 K, x1 = 1	–	0.961 ± 0.012
323.15 K, x1 = 0.0681	1194.9 ± 0.8	0.446 ± 0.011
323.15 K, x1 = 0.1544	1191.8 ± 0.8	0.466 ± 0.011
323.15 K, x1 = 0.2197	1190.6 ± 0.8	0.484 ± 0.011
323.15 K, x1 = 0.3045	1190.1 ± 0.8	0.51 ± 0.011
323.15 K, x1 = 0.3964	1190.7 ± 0.8	0.541 ± 0.011
323.15 K, x1 = 0.4964	1192.5 ± 0.8	0.58 ± 0.011
323.15 K, x1 = 0.6046	1195.4 ± 0.8	0.625 ± 0.011
323.15 K, x1 = 0.7244	1199.6 ± 0.8	0.683 ± 0.011
323.15 K, x1 = 0.8548	1204.8 ± 0.8	0.754 ± 0.021
323.15 K, x1 = 1	–	0.837 ± 0.012
333.15 K, x1 = 0.0681	1153.9 ± 0.8	0.405 ± 0.011
333.15 K, x1 = 0.1544	1151.2 ± 0.7	0.422 ± 0.011
333.15 K, x1 = 0.2197	1150.3 ± 0.7	0.437 ± 0.011
333.15 K, x1 = 0.3045	1150.2 ± 0.7	0.46 ± 0.011
333.15 K, x1 = 0.3964	1151.1 ± 0.8	0.486 ± 0.011
333.15 K, x1 = 0.4964	1153.2 ± 0.8	0.519 ± 0.011
333.15 K, x1 = 0.6046	1156.5 ± 0.8	0.558 ± 0.011
333.15 K, x1 = 0.7244	1161 ± 0.8	0.604 ± 0.011
333.15 K, x1 = 0.8548	1166.5 ± 0.8	0.663 ± 0.021
333.15 K, x1 = 1	–	0.735 ± 0.011
343.15 K, x1 = 0.0681	–	0.37 ± 0.011
343.15 K, x1 = 0.1544	–	0.379 ± 0.011
343.15 K, x1 = 0.2197	–	0.397 ± 0.011
343.15 K, x1 = 0.3045	–	0.418 ± 0.011
343.15 K, x1 = 0.3964	–	0.438 ± 0.011
343.15 K, x1 = 0.4964	–	0.469 ± 0.011
343.15 K, x1 = 0.6046	–	0.502 ± 0.011
343.15 K, x1 = 0.7244	–	0.535 ± 0.011
343.15 K, x1 = 0.8548	–	0.586 ± 0.021
343.15 K, x1 = 1	–	0.648 ± 0.011
353.15 K, x1 = 0.0681	–	0.325 ± 0.011
353.15 K, x1 = 0.1544	–	0.345 ± 0.011
353.15 K, x1 = 0.2197	–	0.356 ± 0.011
353.15 K, x1 = 0.3045	–	0.373 ± 0.011
353.15 K, x1 = 0.3964	–	0.395 ± 0.011
353.15 K, x1 = 0.4964	–	0.426 ± 0.011
353.15 K, x1 = 0.6046	–	0.451 ± 0.011
353.15 K, x1 = 0.7244	–	0.49 ± 0.011
353.15 K, x1 = 0.8548	–	0.532 ± 0.021
353.15 K, x1 = 1	–	0.576 ± 0.011

Details	surface tension liquid-gas [mN/m]
x1 = 0.0681	28.1 ± 0.2
x1 = 0.1544	27.7 ± 0.2
x1 = 0.2197	27.5 ± 0.2
x1 = 0.3045	27.3 ± 0.2
x1 = 0.3964	27.2 ± 0.2
x1 = 0.4964	27 ± 0.2
x1 = 0.6046	26.9 ± 0.2
x1 = 0.7244	26.7 ± 0.2
